Some results are limits rather than exact numbers.

The assay deals with T1, human GPR39 receptor (Homo sapiens, UniProt O43194).
T1 construct: PC3 Cells, Expressing the Endogenous Human GPR39 Receptor; endogenous in cells; host or cells: PC3 (human prostate adenocarcinoma) cells
T1 sequence (O43194 1-453): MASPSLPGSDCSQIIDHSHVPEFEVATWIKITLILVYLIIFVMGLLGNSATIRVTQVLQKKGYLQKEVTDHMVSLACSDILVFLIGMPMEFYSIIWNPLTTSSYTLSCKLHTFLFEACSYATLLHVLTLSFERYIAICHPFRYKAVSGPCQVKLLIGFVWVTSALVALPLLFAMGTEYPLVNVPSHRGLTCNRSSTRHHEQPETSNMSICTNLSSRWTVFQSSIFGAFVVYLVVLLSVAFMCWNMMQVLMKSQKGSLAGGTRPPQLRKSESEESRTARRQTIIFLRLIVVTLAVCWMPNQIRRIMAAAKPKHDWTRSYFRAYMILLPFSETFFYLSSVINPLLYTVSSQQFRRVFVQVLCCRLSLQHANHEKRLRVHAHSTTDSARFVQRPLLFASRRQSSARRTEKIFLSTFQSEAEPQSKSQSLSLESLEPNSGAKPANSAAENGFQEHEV
The assay is described as follows: Measurement of intracellular calcium response in PC3 cells (FLIPR), antagonism of the C3 agonist response. The following applies: functional pKi (modified Cheng-Prusoff), inhibition of the C3 (TC-G 1008) response at EC90, 30 μM ZnCl2, read-out: fpKi activity. The assay is classed as cell-based. A digest of the protocol: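 Potency was reported as fpKi, converted by modified Cheng-Prusoff from four-parameter IC50 fits against an EC90 C3 agonist challenge. Calcium-6 FLIPR readings used PC3 cells naturally expressing human GPR39, in pH 7.4 HEPES buffer containing 30 μM final ZnCl2. Score bands: +/± <5.2, + 5.2–5.9, ++ 6.0–6.5, +++ 6.6–7.2, ++++ ≥7.3.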
(A change in cytosolic calcium serves as a functional read-out for many receptors and channels.)
Regarding `CNC(=O)N1CCN(C(=O)c2ccc(NC(=O)C3CC3)cc2N2CCCC2)C(c2ccccc2)C1` (stereo not shown) [Example 217, 4-[4-(cyclopropanecarbonylamino)-2-pyrrolidin-1-ylbenzoyl]-N-methyl-3-phenylpiperazine-1-carboxamide], the Ki was 316 to 1000 nM.
The figure for `Cc1nnc(-c2ccc(C(=O)N3CCN(C)CC3c3ccccc3)c(N3CCCC3)c2)[nH]1` (single isomer, unassigned) [Example 150b, (2R or 2S) (4-methyl-2-phenylpiperazin-1-yl)-[4-(5-methyl-4H-1,2,4-triazol-3-yl)-2-pyrrolidin-1-ylphenyl]methanone] is 1260 to 6310 nM.
The figure for `CN1CCN(C(=O)c2ccc(NC(=O)C3CC3)cc2N2CCCC2)C(c2ccccc2Cl)C1` (racemic) [Example 170c, N-[4-[2-(2-chlorophenyl)-4-methylpiperazine-1-carbonyl]-3-pyrrolidin-1-ylphenyl]cyclopropanecarboxamide] is ≤ 50.1 nM; for `CN1CCN(C(=O)c2ccc(NC(=O)C3CC3)cc2N2CCCC2)C(c2cccc(Cl)c2)C1` (single isomer, unassigned) [Example 171b, (2R or 2S) N-[4-[2-(3-chlorophenyl)-4-methylpiperazine-1-carbonyl]-3-pyrrolidin-1-ylphenyl] cyclopropanecarboxamide] it is ≤ 50.1 nM.
The figure for `CCCN1CCN(C(=O)c2ccc(NC(=O)C3CC3)nc2N2CCCCCC2)CC1` [Example 108] is 63.1 to 251 nM.
With `CC1CC(C)CN(c2cc(NC(=O)C3CC3)ccc2C(=O)N2CCN(C)CC2c2ccccc2)C1` (racemic) [Example 68c, Syn N-[3-[3,5-dimethylpiperidin-1-yl]-4-(4-methyl-2-phenylpiperazine-1-carbonyl)phenyl]cyclopropanecarboxamide], the Ki is ≤ 50.1 nM.
On to `CN1CCN(C(=O)c2ccc(NC(=O)C3CC3)cc2N2CCCC2)C(c2ccccc2F)C1` (single isomer, unassigned) [Example 84b, N-[4-[2-(2-fluorophenyl)-4-methylpiperazine-1-carbonyl]-3-pyrrolidin-1-ylphenyl]cyclopropanecarboxamide], for which the Ki fell in the range of 1260 to 6310 nM.
Next, `O=C(Nc1ccc(C(=O)N2CCOCC2c2ccccc2)c(N2CCCC2)c1)C1CC1` (racemic) [Example 167, N-[4-(3-phenylmorpholine-4-carbonyl)-3-pyrrolidin-1-ylphenyl]cyclopropanecarboxamide]: 63.1 to 251 nM.
As to `O=C(NCc1ccccc1)c1ccc(NC(=O)C2CC2)cc1N1CCCCCC1` [Example 43, 2-(azepan-1-yl)-N-benzyl-4-cyclopropaneamidobenzamide], the Ki is 316 to 1000 nM.
Next, `O=C(Nc1ccc(C(=O)N2CCN(c3cccnc3)CC2)c(N2CCCCCC2)c1)C1CC1` [Example 51, N-(3-(azepan-1-yl)-4-(4-(pyridin-3-yl)piperazine-1-carbonyl)phenyl) Cyclopropanecarboxamide]: 63.1 to 251 nM; `CCCN1CCN(C(=O)c2ccc(NC(=O)C3CC3)cc2N2CCc3ccccc3C2)CC1` [Example 18, N-(3-(3,4-dihydroisoquinolin-2(1H)-yl)-4-(4-propylpiperazine-1-carbonyl)phenyl)cyclopropane carboxamide]: 316 to 1000 nM; `Cc1nnc(-c2ccc(C(=O)N3CCN(C)CC3c3ccccc3)c(N3CCCC3)c2)o1` (racemic) [Example 123, [4-(5-methyl-1,3,4-oxadiazol-2-yl)-2-pyrrolidin-1-ylphenyl]-(4-methyl-2-phenylpiperazin-1-yl)methanone]: 1260 to 6310 nM.
Next, `CN1CCN(C(=O)c2ccc(NC(=O)C3CC3)cc2N2CCCC2)C(c2cccc(F)c2)C1` (racemic) [Example 88c, N-[4-[2-(3-fluorophenyl)-4-methylpiperazine-1-carbonyl]-3-pyrrolidin-1-ylphenyl]cyclopropanecarboxamide]: 63.1 to 251 nM.

These data come from patent US20230174484A1, “ANTAGONISTS OF GPR39 PROTEIN” (Oregon Health & Science University, priority 2020, published 2023).
